Assay results published in patent US9416103B2, “Use of the aminoalkylindole JWH-073-M4 and related compounds as neutral CB1 receptor antagonists for the treatment of alcoholism, drug abuse, obesity, and obesity-related diseases” (The Board of Trustees of the University of Arkansas, priority 2012, dated 2016).
Read-outs that look alike come from different tables or passages of the source. Marks after values point to notes of the source that are not given here.

Experiments:
CB1Rs [1] = target: T1, CB1Rs (Mus musculus (Mouse), UniProt P47746); assay: Competition receptor binding with [3H]CP-55,940 in mouse brain homogenates; conditions: Table 3; read-out: mCB1R Ki
Method: (§1) Mouse brain homogenates for in vitro assays were prepared as previously described. Briefly, whole brains were harvested from B6SJL mice, snap-frozen in liquid nitrogen and stored at −80° C. On the day membrane homogenates were to be prepared, brains were thawed on ice, then pooled in a 40 mL Dounce glass homogenizer and suspended in 5 volumes of ice cold homogenization buffer (50 mM HEPES, pH 7.4, 3 mM MgCl2, and 1 mM EGTA). Brains were then subjected to 10 complete strokes with an A pestle, followed by centrifugation at 40,000×g for 10 minutes at +4° C. Resulting supernatants were discarded, and the pellet was resuspended, homogenized and centrifuged similarly twice more, with supernatants being discarded. For the final resuspension and homogenization with a B pestle, ice-cold 50 mM HEPES was used in place of homogenization buffer, and homogenates were aliquoted and stored at −80° C. Protein concentrations of homogenates were determined using the BCA™ Protein Assay (Thermo Scientific, Rockford, Ill.).
(§2) Competition receptor binding was performed as previously described. […] Reactions were terminated by rapid vacuum filtration through Whatman GF/B glass fiber filters, followed by five washes with ice-cold buffer (50 mM Tris, 0.05% BSA). Filters were immediately placed into 7 mL scintillation vials to which 4 mL of ScintiVerse™ BD Cocktail scintillation fluid (Fisher Scientific, Fair Lawn, N.J.) was added. Bound radioactivity was determined after overnight incubation at room temperature and shaking, by liquid scintillation spectrophotometry with an efficiency of 44% (Tri Carb 2100 TR Liquid Scintillation Analyzer, Packard Instrument Company, Meriden, Conn.). Specific binding is expressed as total binding minus non-specific binding, and is graphed for each data point as a percentage of specific binding occurring in the absence of any competitor.
(§3) Curve fitting and statistical analyses for in vitro experiments were performed using GraphPad Prism™ version 5.0b (GraphPad Software Inc., San Diego, Calif.). The Cheng-Prusoff equation [45] was used to convert the experimental IC50 values obtained from competition receptor binding experiments to Ki values, a quantitative measure of receptor affinity. Non-linear regression for one-site competition was used to determine the IC50 for competition receptor binding. Curve fitting of concentration-effect curves via non-linear regression was also employed to determine the EC50 (a measure of potency) and Emax (a measure of efficacy) for [^35S]GTPγS concentration-effects experiments. […] Data are expressed as mean±SEM. The Student's t-test was used to determine statistical significance (P<0.05) between two groups, while a one-way ANOVA, followed by Tukey's Multiple Comparison post-hoc test, was used to determine statistical significance (P<0.05) between three or more groups.
(§4) The prepared analogues were subjected to in vitro pharmacological testing, which included receptor binding and functional assays at both cannabinoid receptors. Initial receptor binding screens at both CB1Rs and CB2Rs were conducted for the analogues prepared.

hCB2Rs [2] = target: T2, hCB2Rs (Homo sapiens (Human), UniProt P34972); assay: Competition receptor binding with [3H]CP-55,940 in CHO-hCB2 cell homogenates; conditions: Table 3; read-out: hCB2R Ki
Method: as §2, §4

hCB2Rs [3] = target: T2, hCB2Rs; assay: Inhibition of forskolin-stimulated cAMP production (adenylyl cyclase) in intact CHO-hCB2R cells; format: cell-based; conditions: for inhibition at 10 µM: CHO cell transfected with hCB2 receptors, read-out: AC-inhibition at CB2Rs; for inhibition of AC-activity at CB2Rs, concentration-effect: CHO-hCB2 cells
Method: Adenylyl cyclases are a family of membrane-bound enzymes that catalyze the intracellular production of the second messenger cAMP from ATP. Adenylyl cyclase activity is modulated by activated G-proteins: Gs-proteins stimulate activity, while Gi/o-proteins are inhibitory. Thus, agonists of G-protein coupled receptors (GPCRs) coupled to Gi/o-proteins, such as hCB2Rs, decrease cAMP production due to inhibition of adenylyl cyclase activity. In this assay, intact CHO-hCB2R cells are preincubated with [^3H]-adenine and treated with forskolin (10 or 30 μM) to stimulate adenylyl cyclase activity.
A functional assay screen for the inhibition of adenylate cyclase (AC) activity was chosen as the subsequent assay. […] Reaching full-receptor occupancy, which is predicted to produce maximal efficacy, is desirable at 10 μM concentration of all the compounds was used.

[4] = target: CB1Rs endogenously expressed in Neuro2A cells (Mus musculus (Mouse), UniProt P47746); assay: Adenylyl cyclase (AC) inhibition via CB1Rs endogenously expressed in Neuro2A cells; format: cell-based; conditions: for antagonism of AC-inhibition produced by the CB1R full agonist JWH-073: 1 μM concentration; for inhibition at 10 µM: N2a
CHO-WT cells = assay: AC-inhibition assay in CHO-WT cells not transfected with CB2Rs; format: cell-based, Chinese hamster
Method: To examine if the observed agonist activity is due to activation of CB2Rs, an additional AC-inhibition assay was performed.

mice [5] = assay: Thermoregulation assay, antagonism of JWH-073-induced hypothermia; format: in vivo, mouse; conditions: 30 minute pretreatment before JWH-073 10 mg/kg
From the text: Our hypothesis is that a dual activity CB1R antagonist/CB2R agonist will reduce the reinforcing effects of EtOH as well as reduce the conditioned rewarding effects of ethanol in mice. The compounds selected will firstly be put through a thermoregulation assay as a screen for potential cannabinoid receptor activity. Thermoregulation will be used as a screen because of the well-established hypothermic effects seen with the use of cannabinoid ligands. This assay was done using glass radiotelemetry probes that were surgically implanted in each mouse, which monitor core temperature in response to drug administration. […] This screen does indeed confirm the in vivo cannabinoid activity of TV-5-249 and TV-6-41 and it also illustrates the evident antagonist effects against agonist induced hypothermia.

mice [6] = assay: Alcohol conditioned place preference (CPP); format: in vivo, mouse; conditions: 10 mg/kg given 1 hour before EtOH pairings
Method: Alcohol conditioned place preference assay was done with compounds TV-6-41 and rimonabant. This assay tests the effects of these compounds on conditioned rewarding effects of EtOH. Training of mice involved 4 daily injections of […] EtOH paired with location to one of two chambers (four pairings) after which an increase in time spent in the EtOH-paired chamber was observed, and this points to the development of conditioned place preference (FIG. 24, ‘Pre” bar vs. “Post” bar). […] With the CPP training underway, mice were exposed to succeeding conditioning trials either with 10 mg/kg TV-6-41 or […] 1 hour before EtOH pairings. […] During these studies it was observed that 4 pairings of […] EtOH elicited a CPP of about 400 sec (FIG. 25, “No inj” bar).

mice [7] = assay: Oral EtOH self administration, 2-bottle choice procedure; conditions: daily treatment 10 mg/kg
From the text: These assays are important models for the study of alcoholism because they model several aspects of this condition including voluntary EtOH drinking (SA), conditioned EtOH reward (CPP), abstinence and relapse, which represent extinction and reinstatement of CPP, respectively. Effects of TV-5-249 on voluntary 10% EtOH drinking were studied using a 2-bottle choice procedure described by Keane and coworkers as wells as by Cunningham and coworkers. […] After 5 such observations, which represents a two week washout period, daily treatments with 10 mg/kg TV-5-249 were initiated. […] The last treatment was an everyday injection of vehicle, which is 8% Tween/92% sterile water solution and it represents the solution in which both drugs were dissolved in prior to injections.

CB1Rs [8] = target: T1, CB1Rs; assay: [35S]GTPγS binding assay (G-protein activation) in mouse brain homogenates; format: biochemical
Method: as §1
[^35S]GTPγS binding was performed as previously described. Briefly, 25 μg of mouse brain homogenates were incubated for 30 minutes at 30° C. with 0.1 nM [^35S]GTPγS, 10 μM GDP, and either cannabinoid+/−antagonist, 10 μM unlabeled GTPγS (non-specific binding) or vehicle (total binding), in triplicate, in a volume of 1 mL of buffer containing 20 mM HEPES, 10 mM MgCl2, 100 mM NaCl, 20 units/L adenosine deaminase, 0.05% BSA and the appropriate DMSO (0.1%) and/or ethanol (<0.2%) vehicle. Assay buffer containing 100 mM KCl, instead of 100 mM NaCl, was used to increase basal G-protein activity in experiments examining inverse agonism. Reactions were terminated by quick vacuum filtration through Whatman GF/B glass fiber filters, followed by five washes with ice-cold buffer (20 mM HEPES, 0.05% BSA). Filters were immediately placed into 7 mL scintillation vials to which 4 mL of ScintiVerse™ BD Cocktail scintillation fluid was added. Bound radioactivity was determined after overnight incubation at room temperature and shaking by liquid scintillation spectrophotometry with an efficiency of 93% (Tri Carb 2100 TR Liquid Scintillation Analyzer, Packard Instrument Company, Meriden, Conn.). Specific binding is expressed as picomoles of [^35S]GTPγS bound per mg of protein.
as §3

CB1Rs [9] = target: T1, CB1Rs; conditions: mouse brain homogenates; values previously reported [39]; read-out: [3H]CP binding Ki; cited from earlier work

Structure (SMILES)	Ki (CB1Rs [1])	Ki (hCB2Rs [2])	inhibition at 10 µM (hCB2Rs [3])	inhibition of AC-activity at CB2Rs, concentration-effect (hCB2Rs [3])	antagonism of AC-inhibition produced by the CB1R full agonist JWH-073 [4]	inhibition at 10 µM ([4]; 10 μM, Neuro2A cells)	inhibition of AC-activity via CB1Rs, concentration-effect ([4]; Neuro2A cells)	AC-activity in CHO-WT cells not transfected with CB2Rs (CHO-WT cells)	effect on JWH-073-induced hypothermia (mice [5])	EtOH conditioned place preference (mice [6])	EtOH preference (10% EtOH, 2-bottle choice) (mice [7])	body weight (mice [7])	total fluid consumption (mice [7])	[35S]GTPγS Binding, 100 nM (CB1Rs [8]; 100 nM)	[35S]GTPγS Binding, +O-2050 (1 μM) (CB1Rs [8]; 1 μM cannabinoid (100 nM for CP-55,940) co-incubated with CB1R antagonist O-2050 1 μM)	[35S]GTPγS Binding Emax (CB1Rs [8]; concentration-effect, mouse brain homogenates)	EC50 (CB1Rs [8]; concentration-effect, mouse brain homogenates, read-out: [35S]GTPγS Binding EC50)	AC-inhibition at CB1Rs ([4]; 10 μM, Neuro2A cells)	Ki (CB1Rs [9])
CCCCn1cc(-c2ccc3ccccc3c2)c2cccc(OC)c21 [TV-6-41, 1-butyl-7-methoxy-3-(naphthalen-2-yl)-1H-indole]	37.3 ± 11.8 nM	26.5 nM	20.8%	40-50%	antagonize AC inhibition	16%	very little inhibition of AC-activity	neither TV-5-249 nor TV-6-41 significantly modify AC-activity	significantly decreased the hypothermic effects of JWH-073	conditioned rewarding effects of EtOH were blocked									
Cc1c(C(=O)NN2CCCCC2)nn(-c2ccc(Cl)cc2Cl)c1-c1ccc(Cl)cc1 [rimonabant, 5-(4-Chlorophenyl)-1-(2,4-dichloro-phenyl)-4-methyl-N-(piperidin-1-yl)-1H-pyrazole-3-carboxamide, reference compound]										did not elicit a significant preference for the EtOH-paired chamber	decreases EtOH preference	does indeed have an effect on body weight	without having any effect on total fluid intake						
CCCCCCC(C)(C)c1ccc(C2CC(O)CC[C@H]2CCCO)c(O)c1 (some centres unmarked) [CP-55,940]														0.20 ± 0.04 pmol/mg	0.06 ± 0.03 pmol/mg	0.26 ± 0.01^a pmole/mg	7.5 ± 1.8 nM	45%	0.26 ± 0.1 nM
CCCCn1cc(Cc2cccc3ccccc23)c2cccc(OC)c21 [TV-5-249, 1-butyl-7-methoxy-3-(naphthalen-1-ylmethyl)-1H-indole]	15.4 ± 2.2 nM	10.9 nM	33.2%	40-50%	antagonize AC inhibition	18%	very little inhibition of AC-activity	neither TV-5-249 nor TV-6-41 significantly modify AC-activity	significantly decreased the hypothermic effects of JWH-073		reduced EtOH preference	did not decrease body weight	without affecting total fluid consumption						
